Test results from patent EP1978972B1, “USE OF ALKYLGLUCOSIDE ESTERS AS BETA-DEFENSIN INDUCERS” (Pierre Fabre Dermo-Cosmétique, priority 2006, dated 2007).

Columns and labels:
S. aureus [1] = assay: Adhesion of S. aureus on skin explant (modified Franz cell), count of adherent bacteria; type: cell-based, Staphylococcus aureus
Source text: Pour révéler le complexe Antigène-Anticorps, le kit DAKO LSAB® (DAKO Corporation) est utilisé selon les recommandations du fournisseur. La révélation est réalisée à l'aide d'un substrat de la péroxydase : la 3,3'diaminobenzidine (DAB) (DAKO Corporation). La réaction enzymatique est révélée par une coloration brune. • ➢L'adhésion des micro-organismes est réalisée dans une cellule à double compartimentation, de type cellule de Franz modifiée. • ➢Une suspension de S.aureus (CIP 53.154) équivalente à 0,5.10^7 micro-organismes est introduite au sein du compartiment supérieur de la cellule. Le dispositif est incubé de 2 h à 37°C sous une atmosphère à 5 % de CO2. A la fin de cette période d'incubation, le surnageant est retiré afin d'éliminer les bactéries non adhérentes. Les échantillons de peau sont ensuite rincés deux fois avec 1 ml de mélange DMEM/HAMF12. Un dénombrement bactérien à l'issue de cette étape donne la proportion de bactéries ayant adhéré à l'explant (T+2 h). Un témoin est réalisé dans le but de déterminer l'adhésion non spécifique des bactéries. • ➢La stimulation de l'expression des β-défensines cutanées précède l'étape d'adhésion. Son objectif est d'étudier l'impact de l'induction des peptides antimicrobiens par des actifs potentiels de type « alkyle mono- ou di-ester d'α,β-butylglucoside » sur l'adhésion de souches bactériennes. Le traitement est effectué en topique ou en systémique. Le temps de stimulation des explants cutanés est de 24 h à 37°C en présence de 5 % de CO2.
Pour analyse, les explants sont retirés de leur cellule, des punchs de diamètres différents (3 mm, 4 mm et 6 mm) sont effectués pour un test MTT de survie, les marquages immuno-histologiques et les analyses des transcrits par RT-PCR. Le reste de peau est utilisé pour une estimation de la flore bactérienne adhérente.
Le dénombrement de la flore bactérienne adhérente exogène par unité de surface de peau a été effectué selon deux méthodes : • par dénombrement bactérien sur milieu solide • par comptage de la radioactivité émise (la souche contaminante étant marquée au H^3) est effectuée. […]
Après une application topique de 5 h et plusieurs rinçages de la surface épidermique d'un explant cutané, l'effet du traitement par l'α,β-LBG brut sur l'adhésion de S.aureus sur ce même explant a été quantifié par le dénombrement des germes adhérents à l'issue d'une mise en contact de 2 h. […]
Après application topique et plusieurs rinçages de la surface épidermique des explants cutanés, l'effet du traitement par les isoformes de l'ester de laurate de butylglucoside pur à 90 %, séparées, α seul, β seul, ou en mélange α,β-LBG (56 % α/44 % β) sur l'adhésion de S. aureus sur l'épiderme a été comparé après quantification des germes adhérents par dénombrement.

S. aureus [2] = assay: Colonisation of skin explant by exogenous S. aureus during 24 h after adhesion step; type: cell-based, Staphylococcus aureus; conditions: systemic treatment, in words
Method: (§1) Il est par ailleurs possible d'observer la colonisation de l'explant par le germe exogène (S. aureus) après l'étape d'adhésion pendant 24 h. […] L'effet inverse est observé avec le traitement par le TNF-α, cytokine pro-inflammatoire, qui après avoir entraîné une forte chute de l'adhésion de S. aureus (Cf.III.4.2) ne permet pas une limitation de la croissance du germe pathogène sur l'explant et ceci au dépend du germe commensal S. epidermidis.
(§2) La figure 12 annexée illustre la comparaison de la colonisation d'une souche contaminante, S. aureus, avec celle d'une souche commensale, S. epidermis.

hBD-3 [3] = assay: Immunohistochemistry of hBD-3 peptide in skin explants; type: cell-based, human; conditions: skin explant, qualitative
Method: (§3) Les échantillons inclus dans la résine Tissue Tek® sont coupés à froid (température de la chambre à -25°C et la température du porte-objet à - 28°C) à l'aide d'un cryostat (Leica CM 3050s, Nussloch). Les cryocoupes d'une épaisseur de 5 µm sont récupérées sur des lames porte-objet prétraitées, puis mises à sécher environ 2 h à température ambiante et stockées à -20°C pour une utilisation ultérieure. Avant de réaliser l'immuno-marquage, les coupes sont fixées à l'acétone à -20°C pendant 10 min, séchées et conservées à -20°C. Lors d'une première étape, les coupes sont hydratées puis incubées avec les anticorps primaires dirigés contre les peptides d'intérêt dilués dans du PBS. Les anticorps primaires utilisés sont les suivants : • Goat Anti-human BD-2 (500-P161G, Peprotech Inc) dilué au 1/50^e • Rabbit Anti-human defensin-3 (AB3478, Chemicon international) dilué au 1/1000^e • Rabbit Anti-human LL37 (G-075-06, Phoenix Pharmaceuticals Inc) dilué au 1/50^e
(§4) Pour révéler le complexe Antigène-Anticorps, le kit DAKO LSAB® (DAKO Corporation) est utilisé selon les recommandations du fournisseur. La révélation est réalisée à l'aide d'un substrat de la péroxydase : la 3,3'diaminobenzidine (DAB) (DAKO Corporation). […]

S. aureus [4] = assay: Direct microbicidal activity and direct effect on adhesion of S. aureus; parameters: species or system Staphylococcus aureus; conditions: at the concentrations used
[5] = tested on: Staphylococcus epidermidis; assay: Development of endogenous commensal S. epidermidis on skin explant during 24 h after adhesion step; type: cell-based; conditions: systemic treatment, in words
Method: as §1, §2

hBD-2 = assay: Immunohistochemistry of hBD-2 peptide in skin explants; type: cell-based, human; conditions: skin explant, qualitative
Method: as §3, §4

hBD-3 [6] = assay: Immunohistochemistry of hBD-3 peptide in gingival explant, systemic treatment; type: cell-based, human; conditions: 30 µg/ml, 5 h, qualitative
Method: Les explants gingivaux humains de taille variable et petite sont rincés dix fois dans du PBS sans antibiotiques puis mis en culture sur une grille afin d'éviter leur immersion totale, posés côté derme.
as §3
Pour révéler le complexe Antigène-Anticorps, le kit DAKO LSAB® (DAKO Corporation) est utilisé selon les recommandations du fournisseur. […]

Q: What does the source list for laurate de butylglucoside [αβ-LBG brut]?
A: diminution de l'adhésion des germes sur l'explant (S. aureus [1]; systemic 30 µg/ml, separate compartments, vs unstimulated control): 11%; baisse de l'adhésion de S. aureus (S. aureus [1]; topical 30 µg/ml for 5 h, then 2 h contact, vs untreated control): 20%; multiplication / croissance du germe pathogène (S. aureus) sur l'explant (S. aureus [2]): ralentit la multiplication du germe pathogène; production du peptide hBD-3 dans les couches supérieures de l'épiderme (hBD-3 [3]; systemic, 24 h): stimulation de la production; production du peptide hBD-3 dans les couches supérieures de l'épiderme (hBD-3 [3]; topical): stimulation de la production; activité microbicide directe (S. aureus [4]): ni activité microbicide directe; direct effect on adhésion de S. aureus (S. aureus [4]): ni effet sur l'adhésion de S. aureus; développement du germe commensal S. epidermidis [5]: favorise à l'inverse le développement d'un germe commensal endogène; production du peptide hBD-2 dans les couches supérieures de l'épiderme (hBD-2; systemic, 24 h): stimulation de la production; production du peptide hBD-2 dans les couches supérieures de l'épiderme (hBD-2; topical): stimulation de la production; production du peptide hBD-3 dans les couches supérieures de l'épithélium gingival (hBD-3 [6]): induction de la production du peptide hBD-3
